Structures can show the parent of a compound that is named as a salt.
Experiments:
IL-1β = experiment: THP-1 AlphaLISA IL-1β cytokine assay; format: cell-based; conditions: Homo sapiens, differentiated THP-1 cells
Procedure: Biological Example 1—THP-1 AlphaLISA IL-1β and IL-6 Cytokine Assay Measuring Inhibitory Effects on IL-1, and IL-6 Cytokine Output from THP-1s The cytokine inhibition profiles of compounds of formula (I) were determined in a differentiated THP-1 cell assay. All assays were performed in RPMI-1640 growth medium (Gibco), supplemented with 10% fetal bovine serum (FBS; Gibco), 1% penicillin-streptomycin and 1% sodium pyruvate unless specified otherwise. The IL-1β and IL-6 cytokine inhibition assays were each run in a background of differentiated THP-1 cells as described below. All reagents described were from Sigma-Aldrich unless specified otherwise. Compounds were prepared as 10 mM DMSO stocks. THP-1 cells were expanded as a suspension up to 80% confluence in appropriate growth medium. Cells were harvested, suspended, and treated with an appropriate concentration of phorbol 12-myristate 13-acetate (PMA) over a 72 hr period (37° C./5% CO2). Following 72 hrs of THP-1 cell incubation, cellular medium was removed and replaced with fresh growth media containing 1% of FBS. Working concentrations of compounds were prepared separately in 10% FBS treated growth medium and pre-incubated with the cells for 30 minutes (37° C./5% CO2). Following the 30 minute compound pre-incubation, THP-1s were treated with an appropriate concentration of LPS and the THP-1s were subsequently incubated for a 24 hr period (37° C./5% CO2). An appropriate final concentration of Nigericin was then dispensed into the THP-1 plates and incubated for 1 hour (37° C./5% CO2) before THP-1 supernatants were harvested and collected in separate polypropylene 96-well holding plates. Reagents from each of the IL-1β and IL-6 commercial kits (Perkin Elmer) were prepared and run according to the manufacturer's instructions. Subsequently, fluorescence signal detection in a microplate reader was measured (EnVision® Multilabel Reader, Perkin Elmer). Percentage inhibition was calculated per cytokine by normalizing the sample data to the high and low controls used within each plate (+/−LPS respectively). Percentage inhibition was then plotted against compound concentration and the 50% inhibitory concentration (IC50) was determined from the resultant concentration-response curve.

NRF2 = NRF2 activation assay (DiscoverX PathHunter NRF2 translocation kit, U2OS cells); format: cell-based
Procedure: Biological Example 2—NRF2 Activation Assay Measuring Compound Activation Effects on the Anti-Inflammatory Transcription Factor NRF2 in DiscoverX PathHunter NRF2 Translocation Kit Potency and efficacy of compounds of formula (I) against the target of interest to activate NRF2 (nuclear factor erythroid 2-related factor 2) were determined using the PathHunter NRF2 translocation kit (DiscoverX). The NRF2 translocation assay was run using an engineered recombinant cell line, utilising enzyme fragment complementation to determine activation of the Keap1-NRF2 protein complex and subsequent translocation of NRF2 into the nucleus. Enzyme activity was quantified using a chemiluminescent substrate consumed following the formation of a functional enzyme upon PK-tagged NRF2 translocation into the nucleus. Additionally, a defined concentration of dimethyl fumarate was used as the ‘High’ control to normalise test compound activation responses to. U2OS PathHunter eXpress cells were thawed from frozen prior to plating. Following plating, U2OS cells were incubated for 24 hrs (37° C./5% CO2) in commercial kit provided cell medium. Following 24 hrs of U2OS incubation, cells were directly treated with an appropriate final concentration of compound. Following compound treatment, the U2OS plates were incubated for a further 6 hours (37° C./5% CO2) before detection reagent from the PathHunter NRF2 commercial kit was prepared and added to test plates according to the manufacturer's instructions. Subsequently, the luminescence signal detection in a microplate reader was measured (PHERAstar®, BMG Labtech). Percentage activation was calculated by normalising the sample data to the high and low controls used within each plate (+/−DMF). Percentage activation/response was then plotted against compound concentration and the 50% activation concentration (EC50) was determined from the plotted concentration-response curve.

[1] = Hepatocyte stability assay, human; format: in vitro ADME; conditions: cryopreserved hepatocytes, 10 μM compound
From the text: (§1) Biological Example 3—Hepatocyte Stability Assay
(§2) Defrosted cryo-preserved hepatocytes (viability >70%) are used to determine the metabolic stability of a compound via calculation of intrinsic clearance (CIint; a measure of the removal of a compound from the liver in the absence of blood flow and cell binding). Clearance data are particularly important for […] as they can be used in combination with in vivo data to predict the half-life and oral bioavailability of a drug.
(§3) The metabolic stability in hepatocytes assay involves a time-dependent reaction using both positive and negative controls. The cells must be pre-incubated at 37° C. then spiked with test compound (and positive control); samples taken at pre-determined time intervals are analysed to monitor the change in concentration of the initial drug compound over 60 minutes. A buffer incubation reaction (with no hepatocytes present) acts as a negative control and two cocktail solutions, containing compounds with known high and low clearance values (verapamil/7-hydroxycoumarin and propranolol/diltiazem), act as positive controls. • 1. The assay is run with a cell concentration of 0.5×10^6 cells/mL in Leibovitz buffer. • 2. All compounds and controls are run in duplicate. • 3. Compound concentration is 10 μM. • 4. All compounds and controls are incubated with both cells and buffer to show turnover is due to hepatic metabolism. • 5. All wells on the incubation plate will have 326.7 μL of either cells or buffer added. • 6. Prior to assay, cell and buffer-only incubation plates are preincubated for 10 mins at 37° C. • 7. The assay is initiated by adding compounds, 3.3 μL of 1 mM in 10% DMSO-90% Buffer; final DMSO concentration is 0.1%. • 8. Samples are taken at regular timepoints (0, 5, 10, 20, 40, 60 min) until 60 mins. • 9. Sample volume is 40 μL and it is added to 160 μL of crash solvent (acetonitrile with internal standard) and stored on ice. • 10. At the end of the assay, the crash plates are centrifuged at 3500 rpm for 20 mins at 4° C. • 11. 80 μL of clear supernatant is removed and mixed with 80 μL of deionised water before being analysed by LC-MS/MS.
(§4) Raw LC-MS/MS data are exported to, and analysed in, Microsoft Excel for determination of intrinsic clearance. The percentage remaining of a compound is monitored using the peak area of the initial concentration as 100%. Intrinsic clearance and half-life values are calculated using a graph of the natural log of percentage remaining versus the time of reaction in minutes. Half-life (min) and intrinsic clearance (CIint in μL min^−1 10^−6 cells) values are calculated using the gradient of the graph (the elimination rate constant, k) and Equations 1 and 2.

hepatocytes [2] = experiment: Hepatocyte stability assay, human; format: in vitro ADME; conditions: 10 μM compound
From the text: as §1, §2, §3, §4

[3] = Hepatocyte stability assay, mouse; format: in vitro ADME; conditions: mouse, cryopreserved hepatocytes, 10 μM compound
From the text: as §1, §2, §3, §4

hepatocytes [4] = experiment: Hepatocyte stability assay, mouse; format: in vitro ADME; conditions: 10 μM compound
From the text: as §1, §2, §3, §4

[5] = +GSH, normalised to dimethyl fumarate high control, Table 3
[6] = −GSH, normalised to dimethyl fumarate high control, Table 3
[7] = Table 2, compounds of formula (II)
[8] = +GSH, Table 4, compounds of formula (II)
[9] = −GSH, Table 4, compounds of formula (II)

Structure (SMILES)	IC50 (IL-1β; LPS then Nigericin, Table 1) [µM]	EC50 (NRF2; +GSH, Table 3) [µM]	EC50 (NRF2; −GSH, Table 3) [µM]	half-life at 10 μM ([1]; Table 5, read-out: T½) [min]	CIint (hepatocytes [2]; Table 5)	half-life at 10 μM ([3]; Table 5, read-out: T½) [min]	CIint (hepatocytes [4]; Table 5)	IC50 (IL-1β; [7]) [µM]	EC50 (NRF2; [8]) [µM]	EC50 (NRF2; [9]) [µM]	half-life at 10 μM ([1]; Table 6, read-out: T½) [min]	CIint (hepatocytes [2]; Table 6)	half-life at 10 μM ([3]; Table 6, read-out: T½) [min]	CIint (hepatocytes [4]; Table 6)	T½ (hepatocytes [2]; Table 6) [min]	NRF2 activation Emax (NRF2; [5])	NRF2 activation Emax (NRF2; [6])	NRF2 activation Emax (NRF2; [8])	NRF2 activation Emax (NRF2; [9])
CCCCCC[C@@H](C)OC(=O)/C=C/C(=O)OCC(=O)O [Example 13, 2-[(E)-4-[(1R)-1-methylheptoxy]-4-oxo-but-2-enoyl]oxyacetic acid]	2.5 to 6.1	20 to 100	< 2	5 to 29	+++ (+++ means 50-149)	< 5	+ (+ means >277)	–	–	–	–	–	–	–	–	++ (++ means 100-149)	+++ (+++ means 150-199%)	–	–
O=C(O)/C=C/C(=O)OC1CC2(CCC2)C1 [Intermediate 7, (E)-4-oxo-4-(spiro[3.3]heptan-2-yloxy)but-2-enoic acid]	–	–	–	–	–	–	–	6 to 30	< 23	< 23	30 to 100	+++ (+++ means >15-30)	5 to 29	++ (++ means >30-110)	–	–	–	+++ (+++ means >114-150%)	++++ (++++ means >150%)
O=C(O)/C=C/C(=O)OC1CCCCCC1 [Intermediate 8, (E)-4-(cycloheptyloxy)-4-oxobut-2-enoic acid]	–	–	–	–	–	–	–	30 to 50	23 to 48.4	< 23	30 to 100	+++ (+++ means >15-30)	30 to 100	++ (++ means >30-110)	–	–	–	+++ (+++ means >114-150%)	++++ (++++ means >150%)
O=C(O)/C=C/C(=O)OC1(c2ccc(C(F)(F)F)s2)CCC1 [Intermediate 36, (E)-4-oxo-4-(1-(5-(trifluoromethyl)thiophen-2-yl)cyclobutoxy)but-2-enoic acid]	–	–	–	–	–	–	–	< 6	< 23	< 23	> 100	++++ (++++ means 5-15)	30 to 100	++ (++ means >30-110)	–	–	–	++ (++ means >87-114%)	+++ (+++ means >114-150%)
O=C(/C=C/C(=O)OC1(C(=O)O)CC1)OC1CCCCCCC1 [Example 8, (E)-1-((4-(cyclooctyloxy)-4-oxobut-2-enoyl)oxy)cyclopropane-1-carboxylic acid]	< 2.5	20 to 100	< 2	5 to 29	+++ (+++ means 50-149)	< 5	+ (+ means >277)	–	–	–	–	–	–	–	–	++ (++ means 100-149)	++++ (++++ means 200-250%)	–	–

Second part, led by results:

IC50 (IL-1β; LPS then Nigericin, Table 1) [µM]	EC50 (NRF2; +GSH, Table 3) [µM]	EC50 (NRF2; −GSH, Table 3) [µM]	half-life at 10 μM ([1]; Table 5, read-out: T½) [min]	CIint (hepatocytes [2]; Table 5)	half-life at 10 μM ([3]; Table 5, read-out: T½) [min]	CIint (hepatocytes [4]; Table 5)	IC50 (IL-1β; [7]) [µM]	EC50 (NRF2; [8]) [µM]	EC50 (NRF2; [9]) [µM]	half-life at 10 μM ([1]; Table 6, read-out: T½) [min]	CIint (hepatocytes [2]; Table 6)	half-life at 10 μM ([3]; Table 6, read-out: T½) [min]	CIint (hepatocytes [4]; Table 6)	T½ (hepatocytes [2]; Table 6) [min]	Structure (SMILES)	NRF2 activation Emax (NRF2; [5])	NRF2 activation Emax (NRF2; [6])	NRF2 activation Emax (NRF2; [8])	NRF2 activation Emax (NRF2; [9])
< 2.5	6 to 20	< 2	> 100	++++ (++++ means <50)	< 5	+ (+ means >277)	–	–	–	–	–	–	–	–	C[C@@H](OC(=O)/C=C/C(=O)OC1CCCCCCC1)C(=O)O [Example 12, (R,E)-2-((4-(cyclooctyloxy)-4-oxobut-2-enoyl)oxy)propanoic acid]	++ (++ means 100-149)	++++ (++++ means 200-250%)	–	–
6.2	–	–	< 5	>277 μL min^−1 10^−6 cells	< 5	>277 μL min^−1 10^−6 cells	–	–	–	–	>277 μL min^−1 10^−6 cells	< 5	>277 μL min^−1 10^−6 cells	<5	COC(=O)/C=C/C(=O)OCCN1C(=O)CCC1=O [2-(2,5-Dioxopyrrolidin-1-yl)ethyl methyl fumarate, reference compound]	–	–	–	–
< 2.5	6 to 20	< 2	5 to 29	+++ (+++ means 50-149)	< 5	+ (+ means >277)	–	–	–	–	–	–	–	–	CC(C)(COC(=O)/C=C/C(=O)OC1CCCCCCC1)C(=O)O [Example 7, (E)-3-((4-(cyclooctyloxy)-4-oxobut-2-enoyl)oxy)-2,2-dimethylpropanoic acid]	+ (+ means >17.1-99)	++++ (++++ means 200-250%)	–	–
< 2.5	–	–	30 to 100	++++ (++++ means <50)	< 5	+ (+ means >277)	–	–	–	–	–	–	–	–	O=C(O)COC(=O)/C=C/C(=O)OC1CCCCCC1 [Example 10, (E)-2-((4-(cycloheptyloxy)-4-oxobut-2-enoyl)oxy)acetic acid]	–	–	–	–
< 2.5	6 to 20	2.1 to 6	< 5	+ (+ means >277)	< 5	+ (+ means >277)	–	–	–	–	–	–	–	–	CCCCCC[C@@H](C)OC(=O)/C=C/C(=O)OCCC(=O)O [Example 14, (R,E)-3-((4-(octan-2-yloxy)-4-oxobut-2-enoyl)oxy)propanoic acid]	++ (++ means 100-149)	+++ (+++ means 150-199%)	–	–
2.5 to 6.1	20 to 100	2.1 to 6	5 to 29	++ (++ means 150-277)	< 5	+ (+ means >277)	–	–	–	–	–	–	–	–	O=C(/C=C/C(=O)OC1CCCCCCC1)OCCc1nnn[nH]1 [Example 5, 2-(1H-tetrazol-5-yl)ethyl cyclooctyl fumarate]	+ (+ means >17.1-99)	+++ (+++ means 150-199%)	–	–
